Results taken from patent publication US20260234144A1 (TAY THERAPEUTICS LIMITED, priority 2023, published 2026).

Tested on: R223X stop codon in the mutated luciferase gene, ADXC8 luciferase reporter cell line
Assay: cells
Assay type: cell-based
Details: ADXC8 cells, 24 hours; for EC (100% of 200 uM G418 response) / Emax: 24 h; for EC (100% of 200 uM G418 response): read-out: pC100%, negative logarithm of the concentration giving the same response as 200 μM G418; for Emax: read-out: Fold Over Control, maximum fold response relative to 200 μM G418

Row | SMILES | EC (100% of 200 uM G418 response) [µM] | Emax [%] | Fold Over Control (maximum fold response relative to 200 μM G418) | pC100% (negative logarithm of the concentration giving the same response as 200 μM G418)
1 | CNc1cc(N[C@H]2CNC[C@H]2F)nc2nc3c(c(C)c12)CCC3 [Example 633] | 1 to 10 |  |  | 
2 | CN1CCC(Nc2nc(N)c3ccc(-c4cncn4C)nc3n2)CC1 [Example 114] | > 100 | 0 to 100 |  | 
3 | CN1CCC(Nc2nc(N)c3cc4c(nc3n2)CCC4)CC1 [Example 275] | 1 to 10 |  |  | 
4 | Cc1cc(C)c2c(N)nc(NC3CCN(Cc4ccc(C#N)cc4C(F)F)CC3)nc2n1 [Example 508, 4-((4-((4-amino-5,7-dimethylpyrido[2,3-d]pyrimidin-2-yl)amino)piperidin-1-yl)methyl)-3-(difluoromethyl)benzonitrile] | 1 to 10 | 100 to 3000 |  | 
5 | CN(C)Cc1ccc(-c2ccc3c(N)nc(NC4CCN(C)CC4)nc3n2)cc1 [Example 105] | 10 to 100 | 100 to 3000 |  | 
6 | Cc1cc(C)c2c(N)nc(NC3CCN(Cc4cccc(C(F)(F)F)c4)CC3)nc2n1 [Example 492] | 10 to 100 | 100 to 3000 |  | 
7 | Cc1c2c(nc3nc(NC4CCN(Cc5cccc(B(O)O)c5)CC4)nc(N)c13)CCC2 [Example 669] | 1 to 10 | 100 to 3000 |  | 
8 | CN1CCC(Nc2nc(N)c3ccc(C#N)nc3n2)CC1 [Example 282] | > 31.6 | 0 to 100 |  | 
9 | COCc1cccc(-c2ccc3c(N)nc(NC4CCN(C)CC4)nc3n2)c1 [Example 81] | 1 to 10 |  |  | 
10 | Cc1cccc(-c2ccc3c(N)nc(NC4CCN(C)CC4)nc3n2)c1 [Example 49, N^2-(1-methylpiperidin-4-yl)-7-(m-tolyl)pyrido[2,3-d]pyrimidine-2,4-diamine] | 1 to 10 |  |  | 
11 | CC(=O)NCCNc1nc(NC2CCN(C)CC2)nc2nc(C)cc(C)c12 [Example 355] | > 31.6 | 0 to 100 |  | 
12 | Cc1cc(C)c2c(N)nc(N[C@H]3CNC[C@H]3C)nc2n1 [Example 351] | 1 to 10 |  |  | 
13 | CNc1nc(NC2C3CNC2C3)nc2nc(C)cc(C)c12 (single isomer, unassigned) [Example 445] |  |  | ## (Fold over Ctrl > 1 ≤ 30) | ++ (pC100% > 5.0 ≤ 6.0)
14 | Cc1cc(C)c2c(N)nc(NC3CCN(Cc4ccc(C#N)cc4F)CC3)nc2n1 [Example 571] | 1 to 10 | 100 to 3000 |  | 
15 | C=C(C)c1ccnc2nc(NC3CCN(C)CC3)nc(N)c12 [Example 245, N^2-(1-methylpiperidin-4-yl)-5-(prop-1-en-2-yl)pyrido[2,3-d]pyrimidine-2,4-diamine] | > 100 | 0 to 100 |  | 
16 | Cc1c2c(nc3nc(N[C@H]4CN(C)C[C@@H]4O)nc(N(C)C)c13)CCC2 [Example 547] | 10 to 100 | 100 to 3000 |  | 
17 | CN1CCC(Nc2nc(N(C)C)c3cccnc3n2)CC1 [Example 40, N^4,N^4-dimethyl-N^2-(1-methylpiperidin-4-yl)pyrido[2,3-d]pyrimidine-2,4-diamine] | 10 to 100 | 100 to 3000 |  | 
18 | Cc1cc(C)c2c(N)nc(NC3CCNC[C@@H]3F)nc2n1 (some centres unmarked) [Example 206] | 1 to 10 | 100 to 3000 |  | 
19 | CN1CCC(Nc2nc(N)c3ccc(-c4ccccc4C(=O)O)nc3n2)CC1 [Example 87] | > 100 | 0 to 100 |  | 
20 | CNc1nc(N[C@H]2CNC[C@H]2C)nc2nc(C)cc(C)c12 [Example 380] | 1 to 10 | 100 to 3000 |  | 
21 | Cc1nc2nc(NC3CCNCC3)nc(N)c2c2c1CCC2 [Example 556] | 0.1 to 1 | 100 to 3000 |  | 

Row | SMILES | EC (100% of 200 uM G418 response) [µM] | Emax [%] | Fold Over Control (maximum fold response relative to 200 μM G418) | pC100% (negative logarithm of the concentration giving the same response as 200 μM G418)
22 | Cc1nc2nc(NC3CCN(Cc4cc(F)cc(F)c4O)CC3)nc(N)c2c2c1CCC2 [Example 536] | 1 to 10 | 100 to 3000 |  | 
23 | Cc1cc(C)c2c(N)nc(NCCCN3CCCCC3)nc2n1 [Example 7, 5,7-dimethyl-N^2-(3-(piperidin-1-yl)propyl)pyrido[2,3-d]pyrimidine-2,4-diamine] | 1 to 10 | 100 to 3000 |  | 
24 | Cc1c(Cl)c(-c2ccccc2)nc2nc(NCCCN3CCOCC3)nc(N)c12 [Example 128, 6-chloro-5-methyl-N2-(3-morpholinopropyl)-7-phenylpyrido[2,3-d]pyrimidine-2,4-diamine] | 1 to 10 |  |  | 
25 | COC(=O)c1ccc2c(N)nc(NC3CCN(C)CC3)nc2n1 [Example 235, methyl 4-amino-2-((1-methylpiperidin-4-yl)amino)pyrido[2,3-d]pyrimidine-7-carboxylate] | > 100 | 0 to 100 |  | 
26 | Cc1cc(C)c2c(N)nc(N[C@H]3CCNC[C@@H]3C)nc2n1 [Example 641] | 10 to 100 | 100 to 3000 |  | 
27 | CNc1nc(N[C@H]2CNC[C@@H]2O)nc2nc(C)cc(C)c12 [Example 325] | 1 to 10 |  |  | 
28 | Cc1c2c(nc3nc(NC4CCN(Cc5ccc(C#N)cc5F)CC4)nc(N)c13)CCC2 [Example 649] | 1 to 10 | 100 to 3000 |  | 
29 | Cc1cc(C)c2c(N)nc(NCC3CCN(C4CC4)C3)nc2n1 (centres unmarked) [Example 157] | 1 to 10 | 100 to 3000 |  | 
30 | CNc1nc(N[C@H]2CN[C@H](C(F)F)C2)nc2nc(C)cc(C)c12 [Example 407] | 1 to 10 |  |  | 
31 | CN1CCC(Nc2nc(N)c3ccc(-c4ccccc4C(F)(F)F)nc3n2)CC1 [Example 90] | 10 to 100 | 100 to 3000 |  | 
32 | Cc1c2c(nc3nc(NC4CCN(Cc5ccccc5B(O)O)CC4)nc(N)c13)CCC2 [Example 670] | 0.1 to 1 | 100 to 3000 |  | 
33 | CNc1nc(N[C@@H]2CCCN(Cc3ccccc3)C2)nc2nc(C)cc(C)c12 [Example 399] | 1 to 10 | 100 to 3000 |  | 
34 | Cc1c2c(nc3nc(NC4CCN(Cc5ccccc5C(=O)O)CC4)nc(N)c13)CCC2 [Example 675] | > 31.6 | 0 to 100 |  | 
35 | Cc1cc(C)c2c(N)nc(NC3CCN(Cc4ccc(C#N)c(F)c4)CC3)nc2n1 [Example 570] | 0.1 to 1 | 100 to 3000 |  | 
36 | Cc1cc(C)c2c(N)nc(N[C@H]3CCNC[C@H]3F)nc2n1 [Example 587] | 1 to 10 | 100 to 3000 |  | 
37 | Cc1cccc(-c2cc(C)c3c(N)nc(NCCCN4CCOCC4)nc3n2)c1 [Example 253, 5-methyl-N2-(3-morpholinopropyl)-7-(m-tolyl)pyrido[2,3-d]pyrimidine-2,4-diamine] | 1 to 10 |  |  | 
38 | Cc1cc(C2CCC2)nc2nc(NC3CCN(C)CC3)nc(N)c12 [Example 521, 7-cyclobutyl-5-methyl-N^2-(1-methylpiperidin-4-yl)pyrido[2,3-d]pyrimidine-2,4-diamine] | 1 to 10 |  |  | 
39 | CNC(=O)c1ccc(-c2ccc3c(N)nc(NC4CCN(C)CC4)nc3n2)cc1 [Example 77] | > 100 | 0 to 100 |  | 
40 | COC(=O)c1cnc2nc(NC3CCN(C)CC3)nc(N)c2c1 [Example 122, methyl 4-amino-2-[(1-methylpiperidin-4-yl)amino]pyrido[2,3-d]pyrimidine-6-carboxylate] | > 100 | 0 to 100 |  | 
41 | CN1CCC(Nc2nc(N)c3ccc(-c4ccc(Cl)cc4)nc3n2)CC1 [Example 96] | 10 to 100 |  |  | 
